This note sets out measurements from the supplement of paper PMC10307832.

Holding throughout (test): relative viability (nuclei count vs DMSO), 5 days (fraction); higher = more cells survive
Compound in assay [1]: CC(=O)Nc1cccc(-n2c(=O)n(C3CC3)c(=O)c3c(Nc4ccc(I)cc4F)n(C)c(=O)c(C)c32)c1 [Trametinib] + C[C@]1(O)C[C@@H](c2nc(-c3ccc4ccc(-c5ccccc5)nc4c3)c3c(N)nccn32)C1 [Linsitinib] (partner 1 µM)
A digest of the protocol: (§1)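 Relative viability is defined as nuclei in treated wells over nuclei in vehicle wells. Duplicate plates were run and medians reported. Lung cancer cell lines in 1536-well plates were dosed by pin tool one day after seeding, with one drug or with a fixed anchor-drug dose plus five library-drug doses (not always all listed) in √10 steps, and nuclei were counted after 5 days.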

Compound in assay [2]: CC(=O)Nc1cccc(-n2c(=O)n(C3CC3)c(=O)c3c(Nc4ccc(I)cc4F)n(C)c(=O)c(C)c32)c1 [Trametinib] + O=C(c1cc(Cc2n[nH]c(=O)c3ccccc23)ccc1F)N1CCN(C(=O)C2CC2)CC1 [Olaparib] (partner 8 µM)
A digest of the protocol: as §1

Compound in assay [3]: CN1C=C(C2=CC=CC=C21)/C=C\3/C4=C(C=CC=N4)NC3=O + Cc1nc(NC(=O)N2CCC[C@H]2C(N)=O)sc1-c1ccnc(C(C)(C)C(F)(F)F)c1 [Alpelisib] (partner 2 µM)
In outline:
as §1

Compound in assay [4]: CC(=O)Nc1cccc(-n2c(=O)n(C3CC3)c(=O)c3c(Nc4ccc(I)cc4F)n(C)c(=O)c(C)c32)c1 [Trametinib] + COc1cccc2cc(-c3nc([C@H]4CC[C@H](C(=O)O)CC4)n4ncnc(N)c34)[nH]c12 [OSI-027] (partner 0.5 µM)
A digest of the protocol:
as §1

With PC-14, the relative viability came out at 0.996 in assay [1] (first compound 0.0025 µM); 0.89 in assay [1] (first compound 0.007906 µM); 0.787 in assay [1] (first compound 0.025 µM); 0.59 in assay [1] (first compound 0.07906 µM); 0.434 in assay [1] (first compound 0.25 µM); 0.282 in assay [2] (first compound 0.0025 µM). The relative viability in assay [2] (first compound 0.007906 µM) is 0.225; in assay [2] (first compound 0.025 µM), 0.216; in assay [2] (first compound 0.07906 µM) it was 0.222; in assay [2] (first compound 0.25 µM), 0.106; in assay [3] (first compound 0.02 µM) it was 0.99; in assay [3] (first compound 0.06325 µM) it was 1.03. The relative viability amounted to 1.19 in assay [3] (first compound 0.2 µM); 0.906 in assay [3] (first compound 0.6325 µM); 1.04 in assay [3] (first compound 2 µM); 0.843 in assay [4] (first compound 0.0025 µM); 0.72 in assay [4] (first compound 0.007906 µM); 0.427 in assay [4] (first compound 0.025 µM). The relative viability in assay [4] (first compound 0.07906 µM) turned out to be 0.411; in assay [4] (first compound 0.25 µM), 0.155.

As to RERF-LC-KJ, the relative viability is 0.862 in assay [1] (first compound 0.0025 µM); 0.792 in assay [1] (first compound 0.007906 µM); 0.751 in assay [1] (first compound 0.025 µM); 0.791 in assay [1] (first compound 0.07906 µM); 0.793 in assay [1] (first compound 0.25 µM); 0.926 in assay [2] (first compound 0.0025 µM). In addition, the relative viability was found to be 0.81 in assay [2] (first compound 0.007906 µM); 0.919 in assay [2] (first compound 0.025 µM); 0.907 in assay [2] (first compound 0.07906 µM); 0.648 in assay [2] (first compound 0.25 µM); 0.904 in assay [3] (first compound 0.02 µM); 0.848 in assay [3] (first compound 0.06325 µM). Also, the relative viability in assay [3] (first compound 0.2 µM) amounted to 0.748; in assay [3] (first compound 0.6325 µM), 0.811; in assay [3] (first compound 2 µM), 0.736; in assay [4] (first compound 0.0025 µM) it was 0.493; in assay [4] (first compound 0.007906 µM), 0.471; in assay [4] (first compound 0.025 µM), 0.414. For the same cell line, the relative viability in assay [4] (first compound 0.07906 µM) came out at 0.459; in assay [4] (first compound 0.25 µM) it was 0.372.

For SK-LU-1, the relative viability in assay [1] (first compound 0.0025 µM) was found to be 1.18; in assay [1] (first compound 0.007906 µM), 0.965; in assay [1] (first compound 0.025 µM), 0.888; in assay [1] (first compound 0.07906 µM), 0.778; in assay [1] (first compound 0.25 µM), 0.443; in assay [2] (first compound 0.0025 µM) it was 0.429. The relative viability in assay [2] (first compound 0.007906 µM) is 0.364; in assay [2] (first compound 0.025 µM), 0.406; in assay [2] (first compound 0.07906 µM), 0.311; in assay [2] (first compound 0.25 µM), 0.274; in assay [3] (first compound 0.02 µM), 0.879; in assay [3] (first compound 0.06325 µM), 0.671. Further, the relative viability was found to be 0.956 in assay [3] (first compound 0.2 µM); 0.94 in assay [3] (first compound 0.6325 µM); 1.17 in assay [3] (first compound 2 µM); 0.319 in assay [4] (first compound 0.0025 µM); 0.313 in assay [4] (first compound 0.007906 µM); 0.217 in assay [4] (first compound 0.025 µM). In addition, the relative viability in assay [4] (first compound 0.07906 µM) was found to be 0.198; in assay [4] (first compound 0.25 µM) it was 0.188.

As to SK-MES-1, the relative viability was found to be 1.02 in assay [1] (first compound 0.0025 µM); 0.938 in assay [1] (first compound 0.007906 µM); 0.779 in assay [1] (first compound 0.025 µM); 0.505 in assay [1] (first compound 0.07906 µM); 0.338 in assay [1] (first compound 0.25 µM); 0.841 in assay [2] (first compound 0.0025 µM). Besides, the relative viability was 0.737 in assay [2] (first compound 0.007906 µM); 0.546 in assay [2] (first compound 0.025 µM); 0.373 in assay [2] (first compound 0.07906 µM); 0.245 in assay [2] (first compound 0.25 µM); 0.763 in assay [3] (first compound 0.02 µM); 0.853 in assay [3] (first compound 0.06325 µM). Moreover, the relative viability in assay [3] (first compound 0.2 µM) turned out to be 0.84; in assay [3] (first compound 0.6325 µM), 0.963; in assay [3] (first compound 2 µM), 1.02; in assay [4] (first compound 0.0025 µM), 0.647; in assay [4] (first compound 0.007906 µM) it was 0.582; in assay [4] (first compound 0.025 µM), 0.46. Moreover, the values for the relative viability in assay [4] (first compound 0.07906 µM) and in assay [4] (first compound 0.25 µM) were 0.447 and 0.266, respectively.

On to SW 1573, for which the relative viability in assay [1] (first compound 0.0025 µM) came to 0.847; in assay [1] (first compound 0.007906 µM), 0.602; in assay [1] (first compound 0.025 µM), 0.654; in assay [1] (first compound 0.07906 µM) it was 0.487; in assay [1] (first compound 0.25 µM), 0.449; in assay [2] (first compound 0.0025 µM), 0.414. Moreover, the relative viability was found to be 0.456 in assay [2] (first compound 0.007906 µM); 0.407 in assay [2] (first compound 0.025 µM); 0.342 in assay [2] (first compound 0.07906 µM); 0.223 in assay [2] (first compound 0.25 µM); 0.742 in assay [3] (first compound 0.02 µM); 0.644 in assay [3] (first compound 0.06325 µM). The relative viability amounted to 0.782 in assay [3] (first compound 0.2 µM); 0.803 in assay [3] (first compound 0.6325 µM); 0.814 in assay [3] (first compound 2 µM); 0.474 in assay [4] (first compound 0.0025 µM); 0.486 in assay [4] (first compound 0.007906 µM); 0.344 in assay [4] (first compound 0.025 µM). The relative viability in assay [4] (first compound 0.07906 µM) is 0.338; in assay [4] (first compound 0.25 µM), 0.285.
